# Measured values published in ChEMBL document CHEMBL1122779, “Antiinflammatory agents. 3. Synthesis and pharmacological evaluation of 2-amino-3-benzoylphenylacetic acid and analogues” (J Med Chem, 1984).
# Legend:
# [1] = test system: Rattus norvegicus; experiment: Percent change in average volume of pleural fluid at a dose 4 mg/kg of indomethacin and 5-h response is evaluated by Evans blue-carrageenan induced pleural effusion assay; assay type: functional
# [2] = test system: Rattus norvegicus; experiment: Percent change in average volume of pleural fluid at a dose of 4.0 mg/kg and 5-h response by Evans blue-carrageenan induced pleural effusion assay.; assay type: functional
# [3] = molecular target: T1, Cyclooxygenase (Bos taurus, UniProt O62664+O62698)
# T1 sequence (O62664 whole entry): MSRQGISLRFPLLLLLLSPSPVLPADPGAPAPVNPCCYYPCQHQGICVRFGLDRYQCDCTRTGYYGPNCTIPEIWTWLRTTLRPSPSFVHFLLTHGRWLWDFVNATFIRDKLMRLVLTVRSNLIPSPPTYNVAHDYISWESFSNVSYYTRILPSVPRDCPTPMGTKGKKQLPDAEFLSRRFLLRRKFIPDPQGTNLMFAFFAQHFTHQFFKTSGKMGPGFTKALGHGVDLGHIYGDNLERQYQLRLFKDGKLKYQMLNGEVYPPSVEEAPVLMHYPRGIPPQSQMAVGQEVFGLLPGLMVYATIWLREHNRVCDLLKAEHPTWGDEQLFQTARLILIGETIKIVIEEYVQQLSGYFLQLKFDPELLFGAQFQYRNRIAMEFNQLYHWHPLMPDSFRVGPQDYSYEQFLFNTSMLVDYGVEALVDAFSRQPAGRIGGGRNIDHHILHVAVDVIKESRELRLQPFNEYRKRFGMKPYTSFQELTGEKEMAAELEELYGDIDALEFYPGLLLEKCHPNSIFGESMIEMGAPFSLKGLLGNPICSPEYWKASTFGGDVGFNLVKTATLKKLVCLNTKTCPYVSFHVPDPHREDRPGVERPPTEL
# T1 sequence (O62698 whole entry): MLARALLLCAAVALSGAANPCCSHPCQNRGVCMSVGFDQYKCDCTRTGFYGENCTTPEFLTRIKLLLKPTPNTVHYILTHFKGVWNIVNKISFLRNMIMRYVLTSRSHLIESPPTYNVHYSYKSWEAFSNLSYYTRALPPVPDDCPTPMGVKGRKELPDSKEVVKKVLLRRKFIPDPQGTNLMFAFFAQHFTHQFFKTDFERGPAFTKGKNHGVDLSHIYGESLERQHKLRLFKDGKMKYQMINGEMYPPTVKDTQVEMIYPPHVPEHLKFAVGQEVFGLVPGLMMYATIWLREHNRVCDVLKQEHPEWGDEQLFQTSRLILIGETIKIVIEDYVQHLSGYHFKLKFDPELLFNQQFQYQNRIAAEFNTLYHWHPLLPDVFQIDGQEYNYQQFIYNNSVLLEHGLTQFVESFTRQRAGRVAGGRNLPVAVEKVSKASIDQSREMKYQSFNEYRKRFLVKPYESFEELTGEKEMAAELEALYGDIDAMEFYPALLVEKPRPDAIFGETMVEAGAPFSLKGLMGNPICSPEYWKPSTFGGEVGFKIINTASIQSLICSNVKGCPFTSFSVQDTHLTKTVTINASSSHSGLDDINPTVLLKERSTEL
# Description: Inhibition of prostaglandin G/H synthase obtained from bovine seminal vesicles.
# [4] = test system: Rattus norvegicus; experiment: Percent change in average volume of pleural fluid at a dose of 100 mg/kg and 5-h response by Evans blue-carrageenan induced pleural effusion assay.; assay type: functional
# [5] = test system: Mus musculus; experiment: Oral analgesic activity was determined in mice by the acetylcholine-induced abdominal constriction assay upon ip administration of acetylcholine bromide 20 min following oral administration; assay type: functional; conditions: Abdomen
# [6] = species: Rattus norvegicus; experiment: Evaluated for acute potency in pleural effusion assay; assay type: functional
# [7] = species: Rattus norvegicus; experiment: Evaluated for chronic potency in adjuvant arthritis assay; assay type: functional
# [8] = test system: Rattus norvegicus; experiment: Acute gastric toxicity (single oral dose) in male fasted rats; assay type: organism-based, Stomach; conditions: in vivo
# [9] = test system: Mus musculus; experiment: Oral analgesic activity was determined in mice by the acetylcholine-induced abdominal constriction assay upon ip administration of acetylcholine bromide 5 hours following oral administration; assay type: functional; conditions: Abdomen
# [10] = test system: Rattus norvegicus; experiment: Evaluated for chronic intestinal toxicity (multiple oral dose) in rats; assay type: organism-based; conditions: in vivo
SMILES,Change [1] [%],Change [2] [%],IC50 [3] [µM],Change [4] [%],ED50 [5] [mg/kg],Potency [6],Potency [7],Gastric toxicity [8],ED50 [9] [mg/kg],Intestinal toxicity [10]
COc1ccc(C(=O)c2cccc(CC(=O)[O-])c2N)cc1.[Na+],-35,-10,68,–,–,–,–,–,–,–
Cc1ccc(CC(=O)[O-])c(N)c1C(=O)c1ccccc1.[Na+],-1,-38,> 1000,-13,–,–,–,–,–,–
Nc1c(CC(=O)[O-])cc(Br)cc1C(=O)c1ccc(Cl)cc1.[Na+],-40,-26,0.6,-42,–,–,–,–,–,–
Nc1c(CC(=O)[O-])cc(F)cc1C(=O)c1ccc(F)cc1.[Na+],-40,-42,0.2,-42,0.71,1.4,0.01,0.37,–,–
COc1cc(CC(=O)[O-])c(N)c(C(=O)c2ccc(Br)cc2)c1.[Na+],-25,-28,0.9,-33,–,–,–,–,–,–
Nc1c(CC(=O)[O-])cccc1C(=O)c1ccc(-c2ccccc2)cc1.[Na+],-36,-15,0.08,-14,–,–,–,–,–,–
Nc1c(CC(=O)[O-])cccc1C(=O)c1ccc(F)cc1.[Na+],-35,0,0.9,-36,–,–,–,–,–,–
Nc1c(CC(=O)[O-])cc(Cl)cc1C(=O)c1ccc(O)cc1.[Na+],-40,-3,30,-21,–,–,–,–,–,–
Cc1ccc(C(=O)c2cc(C)cc(CC(=O)[O-])c2N)cc1.[Na+],-42,-12,30,-33,–,–,–,–,–,–
Nc1c(CC(=O)[O-])cccc1C(=O)c1ccccc1Cl.[Na+],-33,-22,0.3,-42,–,–,–,–,–,–
Nc1c(CC(=O)[O-])ccc(Cl)c1C(=O)c1ccccc1.[Na+],-35,-4,37,-45,–,–,–,–,–,–
Cc1ccc(C(=O)c2cc(Cl)cc(CC(=O)[O-])c2N)cc1.[Na+],-40,-35,0.02,-44,0.1,1.6,0.1,0.7,0.43,–
CSc1ccc(C(=O)c2cc(C)cc(CC(=O)[O-])c2N)cc1.[Na+],-42,-26,0.4,-47,–,–,–,–,–,–
Cc1ccc(C(=O)c2cc(F)cc(CC(=O)[O-])c2N)cc1.[Na+],-36,-32,0.07,-49,–,–,–,–,–,–
Cc1cc(CC(=O)[O-])c(N)c(C(=O)c2ccc(Cl)cc2Cl)c1.[Na+],-45,-24,1,-43,–,–,–,–,–,–
Cc1ccccc1C(=O)c1cccc(CC(=O)[O-])c1N.[Na+],-25,-13,1,-32,–,–,–,–,–,–
CSc1ccc(C(=O)c2cccc(CC(=O)[O-])c2N)cc1.[Na+],-30,-21,0.1,–,–,–,–,–,–,–
Cc1ccc(C(=O)c2cccc(CC(=O)[O-])c2N)cc1.[Na+],-39,-17,0.3,–,–,–,–,–,–,–

SMILES,Change [1] [%],Change [2] [%],IC50 [3] [µM],Change [4] [%],ED50 [5] [mg/kg],Potency [6],Potency [7],Gastric toxicity [8],ED50 [9] [mg/kg],Intestinal toxicity [10]
Nc1c(CC(=O)[O-])cc(Cl)cc1C(=O)c1ccccc1.[Na+],-35,-17,1,–,–,–,–,–,–,–
Nc1c(CC(=O)[O-])cccc1C(=O)c1ccc(C(F)(F)F)cc1.[Na+],–,-38,1,-24,–,–,–,–,–,–
Nc1c(CC(=O)[O-])cc(F)cc1C(=O)c1ccccc1.[Na+],-20,-9,0.2,-33,–,–,–,–,–,–
CSc1ccc(C(=O)c2cc(Cl)cc(CC(=O)[O-])c2N)cc1.[Na+],-40,-43,0.02,-43,0.1,1.8,0.1,0.9,1.9,–
Cc1cc(CC(=O)[O-])c(N)c(C(=O)c2ccccc2)c1.[Na+],-25,-11,11,-35,–,–,–,–,–,–
Nc1c(CC(=O)[O-])cc(Br)cc1C(=O)c1ccc(Br)cc1.[Na+],-33,-30,0.8,-34,> 0.32,4.2,2.5,1.1,0.2,1
COc1cc(CC(=O)[O-])c(N)c(C(=O)c2ccc(Cl)cc2)c1.[Na+],-37,-26,12,-36,–,–,–,–,–,–
Nc1c(CC(=O)[O-])cc(F)cc1C(=O)c1ccc(Cl)cc1Cl.[Na+],-45,-41,0.1,-46,0.16,1.2,0.13,1,0.65,–
Cc1ccc(C(=O)c2ccccc2)c(N)c1CC(=O)[O-].[Na+],-38,2,3,-39,–,–,–,–,–,–
Nc1c(CC(=O)[O-])cccc1C(=O)c1ccc(Cl)c(Cl)c1.[Na+],-30,-10,50,–,–,–,–,–,–,–
Nc1c(CC(=O)[O-])cccc1C(=O)c1cccc(Cl)c1.[Na+],-33,-15,> 1000,-35,–,–,–,–,–,–
Nc1c(CC(=O)[O-])cc(Cl)cc1C(=O)c1ccc(Br)cc1Cl.[Na+],-36,-25,0.05,-37,0.66,4.9,2.5,1.2,0.19,3.3
CSc1ccc(C(=O)c2cc(F)cc(CC(=O)[O-])c2N)cc1.[Na+],-33,-28,0.008,–,0.1,0.4,0.03,–,> 1,–
Cc1cc(CC(=O)[O-])c(N)c(C(=O)c2ccc(F)cc2)c1.[Na+],-42,0,17,-35,–,–,–,–,–,–
Cc1ccc(C(=O)c2cccc(CC(=O)[O-])c2N)c(C)c1.[Na+],-40,-3,0.1,-38,–,–,–,–,–,–
Cc1cc(CC(=O)[O-])c(N)c(C(=O)c2ccc(Br)cc2)c1.[Na+],-36,-31,0.7,-39,0.72,2.8,1,1.2,0.7,1.1
Nc1c(CC(=O)[O-])cccc1C(=O)c1ccc(Br)cc1Cl.[Na+],-32,-26,0.05,-37,0.12,1.6,7.4,5.6,1.6,1.6
